One data set has as its system A/Anhui/01/2013 (H7N9). In kind it is cell-based, influenza. The following applies: A549 cells, 10 μM for 1 hour before infection, 1 MOI H7N9, 24 hours post infection, titrated on MDCK cells.
The test system of data set [1] is influenza virus. Conditions: in vitro; cited from earlier work.
In data set [2] the test system is A/California/04/2009 (H1N1). Type of data set: cell-based, influenza.
In data set [3] the test system is influenza virus. The following applies: in vivo; cited from earlier work.
In data set [4] the test system is A/Brisbane/10/2007 (H3N2). Type of data set: cell-based, influenza.

Consider `O=C(NCCN1CCC2(CC1)C(=O)NCN2c1cccc(F)c1)c1ccc2ccccc2c1` [compound 3], for which the “cellular toxicity in microscopic image” value in the data set with A549 cells is given as “significant cellular toxicity”. The “viral reproduction (TCID50)” value in the data set with A/Anhui/01/2013 (H7N9) is listed as “significantly lowered viral reproduction”. In addition, in the data set on influenza virus [1], the viral entry entry is reported as “delayed viral entry” and the viral titers result was “reduced viral titers”. The “viral reproduction (TCID50)” value in data set [2] is “significantly lowered viral reproduction”. Moreover, in the data set on influenza virus [3], the survival entry is recorded as “increased survival” and the viral titer result is given as “reduced viral titer”. The “viral reproduction (TCID50)” value in data set [4] is reported as “significantly lowered viral reproduction”.

The values above are taken from publication PMC4535312 (ChemMedChem, 2014).
